Experimental data from ChEMBL document CHEMBL5465560, “Selectivity Literature for EUbOPEN Chemogenomic Library” (2024).
One block for each compound: values may come before it.

How the values were obtained:
[1] = target: T1, Serine/threonine-protein kinase DCLK3 (Homo sapiens) (UniProt Q9C098); assay: Selectivity interaction (KinomeScan (DiscoverX)) EUB0000655a DCLK3; settings: at 10 µM
T1 sequence (whole entry): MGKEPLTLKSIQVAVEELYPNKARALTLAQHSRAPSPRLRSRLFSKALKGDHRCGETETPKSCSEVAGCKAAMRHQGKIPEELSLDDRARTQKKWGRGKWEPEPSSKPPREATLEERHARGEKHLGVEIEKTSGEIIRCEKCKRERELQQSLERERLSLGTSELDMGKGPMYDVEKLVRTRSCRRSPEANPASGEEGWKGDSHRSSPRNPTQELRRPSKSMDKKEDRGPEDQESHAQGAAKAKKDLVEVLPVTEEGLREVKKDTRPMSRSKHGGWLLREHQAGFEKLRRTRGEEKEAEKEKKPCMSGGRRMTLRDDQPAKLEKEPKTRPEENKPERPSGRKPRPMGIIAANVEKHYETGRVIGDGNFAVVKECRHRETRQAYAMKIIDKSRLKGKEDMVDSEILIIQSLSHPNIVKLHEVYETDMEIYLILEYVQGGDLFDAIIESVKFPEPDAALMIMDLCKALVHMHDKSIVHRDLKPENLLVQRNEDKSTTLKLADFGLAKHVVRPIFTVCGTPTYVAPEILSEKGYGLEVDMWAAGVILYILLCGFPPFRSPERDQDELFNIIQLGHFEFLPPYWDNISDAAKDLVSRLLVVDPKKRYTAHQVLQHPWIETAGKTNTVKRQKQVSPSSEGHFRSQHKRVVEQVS

[2] = target: DNA-dependent protein kinase catalytic subunit (Homo sapiens) (UniProt P78527); assay: Selectivity interaction (ActivX KiNativ screen (ex vivo kinase selectivity in human PBMCs)) EUB0001619a PRKDC; assay type: cell-based; settings: PBMC, at 1 µM
[3] = target: ATPase family AAA domain-containing protein 2B (Homo sapiens) (UniProt Q9ULI0); assay: Selectivity interaction (Bromodomain panel (DSF asssay)) EUB0000270b ATAD2B
Chain of ATPase family AAA domain-containing protein 2B (Homo sapiens) (Q9ULI0 whole entry, the tested form may be a part): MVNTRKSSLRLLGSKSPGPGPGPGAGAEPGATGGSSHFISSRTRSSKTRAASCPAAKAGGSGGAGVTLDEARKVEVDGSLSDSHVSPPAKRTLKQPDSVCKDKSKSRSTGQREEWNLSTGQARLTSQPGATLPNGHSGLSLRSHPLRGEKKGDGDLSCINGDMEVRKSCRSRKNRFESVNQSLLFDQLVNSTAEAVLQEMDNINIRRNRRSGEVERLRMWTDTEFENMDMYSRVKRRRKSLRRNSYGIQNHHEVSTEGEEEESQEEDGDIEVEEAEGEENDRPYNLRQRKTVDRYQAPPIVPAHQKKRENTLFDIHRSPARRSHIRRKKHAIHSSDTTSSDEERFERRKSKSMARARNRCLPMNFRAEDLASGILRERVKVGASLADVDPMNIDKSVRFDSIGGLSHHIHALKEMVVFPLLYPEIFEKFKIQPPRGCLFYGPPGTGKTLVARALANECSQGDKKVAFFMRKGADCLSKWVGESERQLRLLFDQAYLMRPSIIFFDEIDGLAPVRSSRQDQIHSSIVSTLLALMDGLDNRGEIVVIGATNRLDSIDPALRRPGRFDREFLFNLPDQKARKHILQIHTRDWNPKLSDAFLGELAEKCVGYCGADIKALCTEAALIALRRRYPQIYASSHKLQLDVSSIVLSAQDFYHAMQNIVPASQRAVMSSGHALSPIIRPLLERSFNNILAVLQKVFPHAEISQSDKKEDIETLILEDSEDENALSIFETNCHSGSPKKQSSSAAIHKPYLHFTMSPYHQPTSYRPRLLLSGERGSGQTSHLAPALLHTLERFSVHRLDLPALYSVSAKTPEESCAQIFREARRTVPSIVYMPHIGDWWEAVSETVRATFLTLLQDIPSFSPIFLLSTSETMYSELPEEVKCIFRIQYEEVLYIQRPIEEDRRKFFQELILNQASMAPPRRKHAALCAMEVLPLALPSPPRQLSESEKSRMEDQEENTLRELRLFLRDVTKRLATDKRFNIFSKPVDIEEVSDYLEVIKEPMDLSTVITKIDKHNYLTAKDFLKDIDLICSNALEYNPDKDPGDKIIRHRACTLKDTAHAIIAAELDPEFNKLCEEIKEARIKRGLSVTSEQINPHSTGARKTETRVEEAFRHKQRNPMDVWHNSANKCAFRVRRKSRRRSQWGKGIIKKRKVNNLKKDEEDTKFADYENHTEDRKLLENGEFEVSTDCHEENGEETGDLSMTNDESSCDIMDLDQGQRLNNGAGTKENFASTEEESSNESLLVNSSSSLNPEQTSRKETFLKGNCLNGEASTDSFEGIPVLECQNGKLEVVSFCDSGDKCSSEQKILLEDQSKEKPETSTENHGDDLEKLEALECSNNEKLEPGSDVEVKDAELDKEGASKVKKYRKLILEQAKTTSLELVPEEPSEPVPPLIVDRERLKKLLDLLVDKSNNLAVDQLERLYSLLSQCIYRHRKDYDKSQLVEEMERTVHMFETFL

[4] = target: T2, TGF-beta receptor type-1 (Homo sapiens) (UniProt P36897); assay: Selectivity interaction (KinomeScan (DiscoverX)) EUB0001049a TGFBR1; settings: at 1 µM
T2 sequence (whole entry): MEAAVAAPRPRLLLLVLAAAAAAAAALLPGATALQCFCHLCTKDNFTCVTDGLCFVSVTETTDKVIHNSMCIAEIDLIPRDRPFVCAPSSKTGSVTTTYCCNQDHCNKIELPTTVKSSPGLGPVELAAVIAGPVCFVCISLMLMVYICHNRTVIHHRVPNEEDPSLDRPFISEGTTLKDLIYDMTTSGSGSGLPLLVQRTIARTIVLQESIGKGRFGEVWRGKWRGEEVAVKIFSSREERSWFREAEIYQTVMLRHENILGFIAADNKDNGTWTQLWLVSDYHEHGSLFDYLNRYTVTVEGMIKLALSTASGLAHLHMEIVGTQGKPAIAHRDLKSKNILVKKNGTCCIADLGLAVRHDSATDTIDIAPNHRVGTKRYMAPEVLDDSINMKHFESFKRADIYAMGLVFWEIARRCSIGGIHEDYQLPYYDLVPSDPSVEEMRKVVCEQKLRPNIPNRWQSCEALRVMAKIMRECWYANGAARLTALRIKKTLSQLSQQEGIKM

[5] = target: Proto-oncogene tyrosine-protein kinase ROS (Homo sapiens) (UniProt P08922); assay: Selectivity interaction (KinomeScan (DiscoverX)) EUB0000666a ROS1; settings: at 10 µM
Chain of Proto-oncogene tyrosine-protein kinase ROS (Homo sapiens) (P08922 whole entry): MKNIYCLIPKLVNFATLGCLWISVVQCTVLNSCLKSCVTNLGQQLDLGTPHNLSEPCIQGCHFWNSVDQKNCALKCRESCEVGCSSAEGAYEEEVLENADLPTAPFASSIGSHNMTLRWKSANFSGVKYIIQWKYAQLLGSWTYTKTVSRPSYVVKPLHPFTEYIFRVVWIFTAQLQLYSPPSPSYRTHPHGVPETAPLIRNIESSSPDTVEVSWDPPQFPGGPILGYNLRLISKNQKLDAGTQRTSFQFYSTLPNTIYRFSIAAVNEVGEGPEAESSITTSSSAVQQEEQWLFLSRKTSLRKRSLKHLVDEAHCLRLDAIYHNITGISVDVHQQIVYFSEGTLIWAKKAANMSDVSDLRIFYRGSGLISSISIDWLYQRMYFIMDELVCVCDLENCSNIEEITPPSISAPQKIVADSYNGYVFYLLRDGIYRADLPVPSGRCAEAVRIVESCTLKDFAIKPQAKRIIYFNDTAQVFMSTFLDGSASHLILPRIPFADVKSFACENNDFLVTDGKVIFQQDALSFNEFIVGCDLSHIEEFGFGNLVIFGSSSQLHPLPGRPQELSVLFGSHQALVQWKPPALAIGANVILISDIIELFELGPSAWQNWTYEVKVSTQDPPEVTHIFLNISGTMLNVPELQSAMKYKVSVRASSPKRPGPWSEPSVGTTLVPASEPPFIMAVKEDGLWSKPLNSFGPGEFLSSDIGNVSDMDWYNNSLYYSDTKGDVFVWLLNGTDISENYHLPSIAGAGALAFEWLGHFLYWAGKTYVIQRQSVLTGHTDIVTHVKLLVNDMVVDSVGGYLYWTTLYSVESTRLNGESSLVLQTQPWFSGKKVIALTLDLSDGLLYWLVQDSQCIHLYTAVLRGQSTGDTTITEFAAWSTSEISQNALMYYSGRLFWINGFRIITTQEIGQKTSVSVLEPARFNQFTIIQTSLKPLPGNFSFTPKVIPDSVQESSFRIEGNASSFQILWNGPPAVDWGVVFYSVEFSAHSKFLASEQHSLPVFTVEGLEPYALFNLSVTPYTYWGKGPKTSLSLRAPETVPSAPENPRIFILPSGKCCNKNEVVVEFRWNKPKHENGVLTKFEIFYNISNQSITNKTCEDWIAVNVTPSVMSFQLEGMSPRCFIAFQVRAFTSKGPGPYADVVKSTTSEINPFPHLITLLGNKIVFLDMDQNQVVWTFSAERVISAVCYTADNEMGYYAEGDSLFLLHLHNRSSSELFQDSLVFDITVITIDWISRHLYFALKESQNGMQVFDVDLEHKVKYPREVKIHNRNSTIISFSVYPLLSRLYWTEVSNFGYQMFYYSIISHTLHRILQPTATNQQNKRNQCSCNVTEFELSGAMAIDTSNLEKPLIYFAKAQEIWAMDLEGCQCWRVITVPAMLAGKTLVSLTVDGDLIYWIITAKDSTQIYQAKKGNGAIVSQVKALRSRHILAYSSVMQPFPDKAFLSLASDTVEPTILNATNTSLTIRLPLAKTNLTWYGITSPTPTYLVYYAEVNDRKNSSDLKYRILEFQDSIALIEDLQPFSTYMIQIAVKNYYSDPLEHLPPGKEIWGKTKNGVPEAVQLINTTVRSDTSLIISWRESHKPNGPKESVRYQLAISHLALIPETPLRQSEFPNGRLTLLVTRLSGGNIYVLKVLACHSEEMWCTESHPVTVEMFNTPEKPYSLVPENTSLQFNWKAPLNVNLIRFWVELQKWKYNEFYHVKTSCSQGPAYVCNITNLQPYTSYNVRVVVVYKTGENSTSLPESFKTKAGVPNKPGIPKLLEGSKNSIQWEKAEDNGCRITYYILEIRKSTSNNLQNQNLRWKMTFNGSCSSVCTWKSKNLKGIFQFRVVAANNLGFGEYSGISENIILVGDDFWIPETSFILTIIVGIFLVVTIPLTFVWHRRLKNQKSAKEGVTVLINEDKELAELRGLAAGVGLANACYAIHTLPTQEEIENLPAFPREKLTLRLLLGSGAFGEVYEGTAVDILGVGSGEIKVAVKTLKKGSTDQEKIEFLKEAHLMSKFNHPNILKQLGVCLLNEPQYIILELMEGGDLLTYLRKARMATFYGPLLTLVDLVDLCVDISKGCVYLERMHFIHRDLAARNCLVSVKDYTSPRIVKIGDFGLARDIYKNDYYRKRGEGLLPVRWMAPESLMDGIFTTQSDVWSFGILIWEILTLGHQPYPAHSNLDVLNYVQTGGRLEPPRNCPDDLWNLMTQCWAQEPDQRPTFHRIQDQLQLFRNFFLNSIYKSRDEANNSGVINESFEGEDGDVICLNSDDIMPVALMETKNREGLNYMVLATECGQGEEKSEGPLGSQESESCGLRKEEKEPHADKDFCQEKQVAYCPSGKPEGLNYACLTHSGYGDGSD

[6] = target: Protein kinase C beta type (Homo sapiens, UniProt P05771); assay: Selectivity interaction (Kinase panel (Z-LYTE Assay)) EUB0001632a PRKCB; settings: at 10 µM
Chain of Protein kinase C beta type (P05771 2-671 limits assumed): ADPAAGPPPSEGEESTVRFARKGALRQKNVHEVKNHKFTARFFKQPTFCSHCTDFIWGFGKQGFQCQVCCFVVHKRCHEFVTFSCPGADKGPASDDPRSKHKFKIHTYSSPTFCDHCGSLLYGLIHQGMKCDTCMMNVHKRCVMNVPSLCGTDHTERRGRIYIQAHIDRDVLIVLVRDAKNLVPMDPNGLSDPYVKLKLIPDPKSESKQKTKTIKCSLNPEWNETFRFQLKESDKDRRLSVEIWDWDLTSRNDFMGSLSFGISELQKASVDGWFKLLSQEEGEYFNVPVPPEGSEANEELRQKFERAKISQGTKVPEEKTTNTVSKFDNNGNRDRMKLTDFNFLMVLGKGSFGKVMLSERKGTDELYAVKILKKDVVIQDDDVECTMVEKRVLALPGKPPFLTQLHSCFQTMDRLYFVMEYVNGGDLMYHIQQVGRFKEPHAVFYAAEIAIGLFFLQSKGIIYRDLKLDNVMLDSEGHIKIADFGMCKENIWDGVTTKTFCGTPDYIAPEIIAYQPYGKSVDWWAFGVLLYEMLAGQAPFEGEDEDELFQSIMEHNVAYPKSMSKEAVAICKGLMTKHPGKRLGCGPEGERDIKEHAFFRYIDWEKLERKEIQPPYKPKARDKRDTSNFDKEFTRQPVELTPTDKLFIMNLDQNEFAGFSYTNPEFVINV

[7] = target: Dual specificity tyrosine-phosphorylation-regulated kinase 1A (Homo sapiens, UniProt Q13627); assay: Selectivity interaction (Kinase panel (Z-LYTE Assay)) EUB0001632a DYRK1A; settings: at 10 µM
[8] = target: T3, Mitogen-activated protein kinase kinase kinase 15 (Homo sapiens) (UniProt Q6ZN16); assay: Selectivity interaction (KinomeScan (DiscoverX)) EUB0000695a MAP3K15; settings: at 100 nM
T3 sequence (whole entry): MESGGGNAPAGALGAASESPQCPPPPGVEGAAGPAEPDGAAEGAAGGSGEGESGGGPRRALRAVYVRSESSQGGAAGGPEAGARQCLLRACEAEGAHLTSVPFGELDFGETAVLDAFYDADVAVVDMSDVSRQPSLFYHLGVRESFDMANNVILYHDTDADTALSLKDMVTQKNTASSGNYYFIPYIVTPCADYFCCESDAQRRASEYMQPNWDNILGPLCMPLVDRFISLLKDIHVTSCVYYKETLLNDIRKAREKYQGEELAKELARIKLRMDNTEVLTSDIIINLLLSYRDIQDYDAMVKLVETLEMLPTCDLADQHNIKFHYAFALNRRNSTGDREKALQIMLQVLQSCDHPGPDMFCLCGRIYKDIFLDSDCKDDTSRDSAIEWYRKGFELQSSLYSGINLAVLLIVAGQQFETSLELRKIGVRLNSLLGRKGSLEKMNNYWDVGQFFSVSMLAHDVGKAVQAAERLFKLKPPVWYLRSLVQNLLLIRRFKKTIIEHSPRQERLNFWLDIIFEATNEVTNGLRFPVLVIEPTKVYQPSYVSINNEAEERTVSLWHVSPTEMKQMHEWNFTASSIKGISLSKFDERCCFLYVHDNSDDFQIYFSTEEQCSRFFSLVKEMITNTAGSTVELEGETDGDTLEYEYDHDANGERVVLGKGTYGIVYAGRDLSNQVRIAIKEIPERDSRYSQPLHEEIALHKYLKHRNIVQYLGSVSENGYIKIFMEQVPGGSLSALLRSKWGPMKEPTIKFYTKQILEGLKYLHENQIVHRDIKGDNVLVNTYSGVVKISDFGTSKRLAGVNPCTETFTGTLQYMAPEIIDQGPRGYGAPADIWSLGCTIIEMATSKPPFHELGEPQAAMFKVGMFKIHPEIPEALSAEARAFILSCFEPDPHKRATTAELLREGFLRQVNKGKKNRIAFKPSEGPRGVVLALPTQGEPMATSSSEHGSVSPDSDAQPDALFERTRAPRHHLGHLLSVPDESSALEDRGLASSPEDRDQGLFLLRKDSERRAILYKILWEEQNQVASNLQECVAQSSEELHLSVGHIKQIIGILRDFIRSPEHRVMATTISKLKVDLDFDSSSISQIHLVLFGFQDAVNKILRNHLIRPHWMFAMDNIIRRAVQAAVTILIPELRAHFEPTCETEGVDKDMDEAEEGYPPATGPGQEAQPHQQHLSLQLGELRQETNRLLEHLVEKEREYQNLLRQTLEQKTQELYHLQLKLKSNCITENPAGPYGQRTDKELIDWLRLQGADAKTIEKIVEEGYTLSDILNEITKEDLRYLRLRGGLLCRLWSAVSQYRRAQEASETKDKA

Compound: CN(C)CCOc1ccc(-c2nc(-c3ccncc3)c(-c3ccc4c(c3)CC/C4=N\O)[nH]2)cc1
% of control [1]: 89%

Compound: N#Cc1cccc(-c2c[nH]c3ncnc(N4CCOCC4)c23)c1
% of inhibition [2]: -4%

dTM [3]: -1.47 K
Compound: Cc1cc(CN)cc(C)c1-c1ncn(C)c1-c1cncn1C

Compound: COc1cc(Nc2nc(C)cc(-c3cnn4nc(OC)ccc34)n2)cc(C(F)(F)F)c1
% of control [4]: 100%

Compound: O=C(NOC[C@H](O)CO)c1ccc(F)c(F)c1Nc1ccc(I)cc1F
% of control [5]: 92%

% of control [6]: 15.6% | % of control [7]: -3.48%
Compound: Cn1cc(-n2cnc3c(NCc4nc5cc(Cl)c(Cl)cc5[nH]4)nc(N4CCOCC4)nc32)cn1

Compound: Cc1cc(F)c(C(=O)Nc2cccc(-c3nncn3C(C)C)n2)cc1-n1cnc(C2CC2)c1
% of control [8]: 66%
